Measured values from patent US20250059141A1, “TLR MODULATOR AND USE THEREOF” (DUALITY BIOLOGICS (SUZHOU) CO., LTD., priority 2021, published 2025).
pEC50: −log10 of the molar value.

What was measured:
[1] = biological target: T1, hTLR7 (human Toll-like receptor 7) (Homo sapiens, UniProt Q9NYK1); assay: HEK-Blue hTLR7 reporter assay (QUANTI-Blue, OD650); assay type: cell-based; conditions: HEK-Blue hTLR7 cells, 24 h; class symbols; read-out: Reporter assay TLR7 EC50
T1 construct: host or cells: HEK-Blue hTLR7 (HEK293-derived reporter cells)
T1 sequence (Q9NYK1 27-1049): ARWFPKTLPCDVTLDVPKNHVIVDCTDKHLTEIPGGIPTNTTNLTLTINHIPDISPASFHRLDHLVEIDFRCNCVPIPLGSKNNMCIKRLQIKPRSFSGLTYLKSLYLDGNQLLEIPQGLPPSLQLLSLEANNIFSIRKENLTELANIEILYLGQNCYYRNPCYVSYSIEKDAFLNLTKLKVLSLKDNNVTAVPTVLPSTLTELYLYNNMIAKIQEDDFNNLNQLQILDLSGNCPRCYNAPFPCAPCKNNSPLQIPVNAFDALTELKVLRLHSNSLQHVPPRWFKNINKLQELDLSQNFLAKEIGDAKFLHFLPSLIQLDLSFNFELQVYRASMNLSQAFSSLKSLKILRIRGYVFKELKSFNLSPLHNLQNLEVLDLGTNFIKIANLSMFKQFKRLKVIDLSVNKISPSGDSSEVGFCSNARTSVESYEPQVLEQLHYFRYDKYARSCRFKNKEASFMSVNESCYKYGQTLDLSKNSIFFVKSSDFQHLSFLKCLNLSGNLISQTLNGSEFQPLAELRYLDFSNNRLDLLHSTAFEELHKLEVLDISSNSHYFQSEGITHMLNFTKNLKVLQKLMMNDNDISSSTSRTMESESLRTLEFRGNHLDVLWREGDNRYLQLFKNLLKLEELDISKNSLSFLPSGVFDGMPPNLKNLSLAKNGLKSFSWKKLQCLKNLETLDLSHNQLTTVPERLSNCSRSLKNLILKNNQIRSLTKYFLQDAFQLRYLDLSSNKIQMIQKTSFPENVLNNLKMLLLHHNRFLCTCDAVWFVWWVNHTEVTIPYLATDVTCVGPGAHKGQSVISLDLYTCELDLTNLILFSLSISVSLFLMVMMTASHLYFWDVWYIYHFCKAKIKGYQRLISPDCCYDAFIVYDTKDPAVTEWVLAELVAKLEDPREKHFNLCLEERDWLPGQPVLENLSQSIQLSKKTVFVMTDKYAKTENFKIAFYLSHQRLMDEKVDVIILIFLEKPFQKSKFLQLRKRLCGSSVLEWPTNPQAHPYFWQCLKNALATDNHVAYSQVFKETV
Description: In this example, the agonistic activity of the compounds of the present application on hTLR7 (human Toll-like receptor 7) and hTLR8 (human Toll-like receptor 8) was assessed; the induction activity of the compounds on human PBMCs for TNF-α and IFN-α production was assessed in human PBMCs (human peripheral blood mononuclear cells).
All compounds were formulated in DMSO into 30 mM stock solutions and preserved at 4° C. The reference compound ([…], Cat. No. tlrl-r848-5) was purchased from InvivoGen and formulated into a 5 mg/mL stock solution in DMSO and preserved in a freezer at −20° C. HEK-Blue hTLR7 and HEK-Blue hTLR8 cell lines were purchased from InvivoGen, and human PBMCs were purchased from Shanghai Saily Biotechnology Co., Ltd. (Cat. No. XFB—HP100B).
The major instruments used in this study were multifunctional microplate reader Flexstation III (Molecular Device), Envision (Perkin Elmer), M2e (Molecular Device), and Echo555 (Labcyte). 2.1 Agonistic activity of compounds on hTLR7 (human Toll-like receptor 7) and hTLR8 (human Toll-like receptor 8)
Compound dilution: The compounds of the present application are diluted in DMSO, for example, to about 15 mM. The reference compound was added to the plates in sequence after dilution. The compounds were serially 3-fold diluted to 10 concentrations and added to 96-well plates in duplicate.
For the negative control wells, DMSO was added at 0.2 μL/well, and the reference compound was added to the positive control wells. The final concentration of DMSO was 0.2%.
Cell plating: When an 80% confluence of HEK Blue hTLR7&8 cells in the culture flask was observed under a microscope, the culture medium was discarded, 10 mL of detection medium was added, and the cells were separated by pipetting. The cells were counted on a cytometer and diluted to 500,000 cells/mL. The cells were plated at 100 μL/50,000 cells/well in the 96-well plates containing the compounds. The compounds and cells were co-incubated at 37° C. in a 5% CO2 incubator for 24 hours.
Compound activity detection: 20 μL of cell supernatant was taken from each well and added to a plate containing QUANTI-Blue™ reagent at 180 μL/well. The plate was incubated at 37° C. for 1 hour, and the absorbance at 650 nm (OD650) was measured on the multifunctional microplate reader Flexstation III.
Compound activity data analysis: The OD650 values were analyzed by GraphPad Prism software and fitted to give dose-response curves of the compounds. The EC50 values of compounds were calculated.

[2] = test system: TNF-α production in human PBMCs; assay: Induction of TNF-α in human PBMCs (ELISA); assay type: cell-based; conditions: PBMC, 24 h, serial 4-fold dilutions, class symbols, read-out: PBMC assay TNFa EC50
Description: In this example, the induction activity of the compounds of the present application on human PBMCs for TNF-α and IFN-α production was assessed in human PBMCs (human peripheral blood mononuclear cells). The human PBMCs were purchased from Shanghai Saily Biotechnology Co., Ltd. (Cat. No. XFB—HP100B). PBMC cells were treated with the compounds. The compounds of the present application are diluted in DMSO, for example, to about 15 mM. The reference compound was added to the plates in sequence after diluted to 5 mg/mL. The compounds were serially 3- or 4-fold diluted to 8 concentrations and added to plates in duplicate (Table 2-1 for serial 3-fold dilutions and Table 2-2 for serial 4-fold dilutions). For the negative control wells, DMSO was added at 0.4 μL/well, and a 5 mg/mL reference compound solution was added to the positive control wells at 0.4 μL/well. The final concentration of DMSO was 0.2%. Frozen human PBMCs in cryopreservation tubes were quickly thawed in a 37° C. water bath and transferred into 50-mL centrifuge tubes. Prewarmed RPMI1640 medium was gradually added and the mixture was well mixed and centrifuged for 15 min before the supernatant was discarded. The cells were resuspended in a culture medium and counted. The cell suspension was adjusted to 2.5×10^6 cells/mL with the culture medium. Diluted cells were added at 200 μL/500,000 cells/well in 96-well plates containing the compounds. The cell plates were incubated at 37° C./5% CO2 for 24 h.
The plate was then washed thrice. […] Termination of reaction: The reaction was terminated by quickly adding the stop solution at 100 μL/well. Plate reading: The reading at wavelength 450 nm was detected by an M2e instrument within 10 min after the termination.
Compound activity data analysis: The OD450 values were converted to TNF-α and IFN-α contents by GraphPad Prism software analysis and fitted to give dose-response curves of the compounds. The EC50 values for the compounds were calculated, where the Emax values are the maximal values for TNF-α and IFN-α.

CCCN(OCc1ccc(N)cc1)C(=O)C1=Cc2ccc(-c3cncc(S(=O)(=O)N4CCNCC4)c3)cc2N=C(N)C1 [Compound 69] showed a pEC50 [1] of 6.00 to 7.00 and a pEC50 [2] of no less than 8.00.

With CCCN(OCc1ccc(N)cc1)C(=O)C1=Cc2ccc(-c3cncc(S(=O)(=O)NCCO)c3)cc2N=C(N)C1 [Compound 70] the pEC50 [1] was 6.00 to 7.00 and the pEC50 [2] was no less than 8.00.

Molecule CCCN(OCc1ccc(N)cc1)C(=O)C1=Cc2ccc(-c3cncc(S(=O)(=O)N4CCC(O)CC4)c3)cc2N=C(N)C1 [Compound 71] has a pEC50 [1] of 6.00 to 7.00 and a pEC50 [2] of no less than 8.00.

Molecule CCCN(OCc1ccc(N)cc1)C(=O)C1=Cc2ccc(-c3cncc(S(=O)(=O)N4CC[C@H](O)C4)c3)cc2N=C(N)C1 [Compound 72] has a pEC50 [1] of 6.00 to 7.00 and a pEC50 [2] of no less than 8.00.

CCCN(OCc1ccc(N)cc1)C(=O)C1=Cc2ccc(-c3cncc([S+](C)[O-])c3)cc2N=C(N)C1 (stereo not drawn) [Compound 73] showed a pEC50 [1] of 6.00 to 7.00 and a pEC50 [2] of no less than 8.00.

Molecule CCCN(OCc1ccc(N)cc1)C(=O)C1=Cc2ccc(C(=O)NC(C)(C)c3ccccc3)cc2N=C(N)C1 [Compound 76] has a pEC50 [1] of 6.00 to 7.00 and a pEC50 [2] of no less than 8.00.

CCCN(OCc1ccc(N)cc1)C(=O)C1=Cc2ccc(C(=O)N[C@@H](C)c3ccccc3)cc2N=C(N)C1 [Compound 77] was tested, and the pEC50 [1] was 6.00 to 7.00 and the pEC50 [2] was no less than 8.00.

CCCN(OCc1ccc(N)cc1)C(=O)C1=Cc2ccc(C(=O)N[C@H]3C[C@@H]3c3ccccc3)cc2N=C(N)C1 [Compound 78] gave a pEC50 [1] of 6.00 to 7.00 and a pEC50 [2] of no less than 8.00.

CCCN(OCc1ccc(N)cc1)C(=O)C1=Cc2ccc(C(=O)NC3COC3)cc2N=C(N)C1 [Compound 81] showed a pEC50 [1] of less than 6.00 and a pEC50 [2] of 7.30 to 8.00.

CCCN(OCc1ccc(N)cc1)C(=O)C1=Cc2ccc(C(=O)NC3CCCCC3)cc2N=C(N)C1 [Compound 82] was tested, and the pEC50 [1] was less than 6.00 and the pEC50 [2] was no less than 8.00.

Work on CCCN(OCc1ccc(N)cc1)C(=O)C1=Cc2ccc(C(=O)NC3CCOCC3)cc2N=C(N)C1 [Compound 84] yielded a pEC50 [1] of less than 6.00 and a pEC50 [2] of no less than 8.00.

CCCN(OCc1ccc(N)cc1)C(=O)C1=Cc2ccc(C(=O)Nc3cncc(OC)c3)cc2N=C(N)C1 [Compound 85] gave a pEC50 [1] of less than 6.00 and a pEC50 [2] of no less than 8.00.

CCCN(OCc1ccc(N)cc1)C(=O)C1=Cc2ccc(C(=O)Nc3cccc(CN)c3)cc2N=C(N)C1 [Compound 86] was tested, and the pEC50 [1] was less than 6.00 and the pEC50 [2] was no less than 8.00.

Work on CCCN(OCc1ccc(N)cc1)C(=O)C1=Cc2ccc(C(=O)Nc3ncco3)cc2N=C(N)C1 [Compound 87] yielded a pEC50 [1] of less than 6.00 and a pEC50 [2] of no less than 8.00.

Work on CCCN(OCc1ccc(N)cc1)C(=O)C1=Cc2ccc(C(=O)Nc3ccn(C)n3)cc2N=C(N)C1 [Compound 88] yielded a pEC50 [1] of less than 6.00 and a pEC50 [2] of no less than 8.00.

Work on CCCN(OCc1ccc(N)cc1)C(=O)C1=Cc2ccc(C(=O)Nc3ccc4cn[nH]c4c3)cc2N=C(N)C1 [Compound 89] yielded a pEC50 [1] of less than 6.00 and a pEC50 [2] of 7.30 to 8.00.

With CCCN(OCc1ccc(N)cc1)C(=O)C1=Cc2ccc(C(=O)Nc3ccc4c(c3)CNC4)cc2N=C(N)C1 [Compound 90] the pEC50 [1] was less than 6.00 and the pEC50 [2] was no less than 8.00.

Molecule CCCN(OCc1ccc(N)cc1)C(=O)C1=Cc2ccc(C(=O)N3CCN(C)CC3)cc2N=C(N)C1 [Compound 93] has a pEC50 [1] of less than 6.00 and a pEC50 [2] of no less than 8.00.

CCCN(OCc1ccc(N)cc1)C(=O)C1=Cc2ccc(C(=O)N3CC(Oc4ccccc4)C3)cc2N=C(N)C1 [Compound 94] was tested, and the pEC50 [1] was 6.00 to 7.00 and the pEC50 [2] was no less than 8.00.

Work on CCCN(OCc1ccc(N)cc1)C(=O)C1=Cc2ccc(C(=O)N3CC4(COC4)C3)cc2N=C(N)C1 [Compound 95] yielded a pEC50 [1] of less than 6.00 and a pEC50 [2] of no less than 8.00.

Work on CCCN(OCc1ccc(N)cc1)C(=O)C1=Cc2ccc(C(=O)N3CCN(c4ccccc4)CC3)cc2N=C(N)C1 [Compound 97] yielded a pEC50 [1] of less than 6.00 and a pEC50 [2] of no less than 8.00.
